Measurements as given in US20150374718A1, “Zhankuic Acid A and Analogs thereof and Their Use as an Anti-Inflammatory Agent” (National Cheng Kung University, priority 2014, published 2015).
Read-outs that look alike come from different tables or passages of the source.

Tested on: LPS-induced TNF-α expression
Experiment: LPS-induced TNF-α expression in murine peritoneal macrophages (ELISA)
Type: cell-based
Details: Mus musculus, Peritoneal macrophage
Procedure: C57BL/6 mice were injected intraperitoneally with 3% thioglycollate, and their peritoneal macrophages were collected 72 h later. Macrophages were cultured in DMEM supplemented with 10% FBS and 50 μg/mL gentamicin at 37° C. in a humidified atmosphere of 5% CO2. […] Cell lysates were subjected to SDS-PAGE for detection of COX2 and iNOS expression. The presence of nitrite (a metabolite of NO) in the culture medium was analyzed by the Griess assay (Sigma-Aldrich), as previously described (16).

[1] = 2 h, read-out: Inhibition of 2 h-TNF-α (%)
[2] = 4 h, read-out: Inhibition of 4 h-TNF-α (%)

SMILES | inhibition at 10 µM [1] [%] | inhibition at 10 µM [2] [%]
C=C(CCC(C)C1CCC2C3=C(C(=O)C[C@@]21C)[C@@]1(C)CCC(=O)[C@@H](C)C1CC3=O)C(C)C(=O)O (stereo in doubt) [No. 1, Zhankuic acid A] | 42.4 | 85.6
C=C(CC[C@@H](C)[C@H]1CC[C@@]2(O)C3=C(C(=O)C[C@]12C)[C@@]1(C)CCC(=O)[C@@H](C)C1C[C@@H]3O)C(C)C(=O)O (stereo partly shown) [No. 14, Camphoratin D] | 65.8 | 81.7
C=C(CC[C@@H](C)[C@H]1CC[C@H]2C3=C(C(=O)C[C@]12C)[C@@]1(C)CCC(=O)[C@@H](C)[C@@H]1CC3)C(C)C(=O)O (stereo partly shown) [No. 7, Antcin A] | 40.6 | 90.7
CC(=O)CC[C@@H](C)[C@H]1CCC2C3=C(C(=O)C[C@@]21C)[C@@]1(C)CCC(=O)[C@@H](C)C1CC3=O (stereo partly shown) [No. 21, Camphoratin L] | 73.9 | 30.6
C=C(CC[C@@H](C)[C@H]1CC[C@H]2C3=C(C(=O)[C@H](O)[C@]12C)[C@@]1(C)CC[C@@H](O)[C@@H](C)[C@@H]1CC3=O)C(C)C(=O)O (stereo partly shown) [No. 4, Zhankuic acid C] | 67.5 | 88.8
C=C(CC[C@@H](C)[C@H]1CCC2C3=C(C(=O)C[C@@]21C)[C@@]1(C)CCC(=O)[C@@H](C)C1CC3)C(C)C(=O)OC (stereo partly shown) [No. 8, Antcin A methyl ester] | 19.4 | 85.2
C=C(CC[C@@H](C)[C@H]1CC[C@H]2C3=C(C(=O)[C@H](O)[C@]12C)[C@@]1(C)CC[C@@H](OC=O)[C@@H](C)[C@@H]1CC3=O)C(C)C(=O)O (stereo partly shown) [No. 5, Zhankuic acid C 3-O-formate] | 1.62 | 45.3
C=C(CC[C@@H](C)[C@H]1CC[C@H]2C3=C(C(=O)[C@H](O)[C@]12C)[C@@]1(C)CC[C@@H](O)[C@@H](C)[C@@H]1CC3=O)C(C)C(=O)OC (stereo partly shown) [No. 27, Methyl antcinate H] | 79.8 | 91.5
C=C(CC[C@@H](C)[C@H]1CC[C@H]2C3=C(C(=O)[C@H](O)[C@]12C)[C@@]1(C)CC[C@@H](O)[C@@H](C)C1C[C@@H]3O)C(C)C(=O)O (stereo partly shown) [No. 12, Camphoratin A] | 22.8 | 29.9
C=C(CC[C@@H](C)[C@H]1CC[C@H]2C3=C(C(=O)[C@H](O)[C@]12C)[C@@]1(C)CC[C@@H](OC=O)[C@@H](C)[C@@H]1CC3)C(C)C(=O)O (stereo partly shown) [No. 11, Antcin M 3-O-formate] | < 0 | 88.3
C=C(CC[C@@H](C)[C@H]1CCC2C3=C(C(=O)C[C@@]21C)[C@@]1(C)CCC(=O)[C@@H](C)C1C[C@@H]3O)C(C)C(=O)OC (stereo partly shown) [No. 16, Camphoratin F] | 38.2 | 80.2
C=C(CC[C@@H](C)[C@H]1CC[C@H]2C3=C(C(=O)C[C@]12C)[C@@]1(C)CC[C@@H](O)[C@@H](C)C1C[C@@H]3O)C(C)C(=O)O (stereo partly shown) [No. 13, Camphoratin B] | 40.7 | 87
C=C(CC[C@@H](C)[C@H]1CC[C@@H]2C3=C(C(=O)C[C@@]21C)[C@@]1(C)CCC(=O)[C@@H](C)C1CC3)C(C)C(=O)OC (stereo partly shown) [No. 19, Camphoratin J] | 73.4 | 90.2
C=C(CC[C@@H](C)[C@H]1CCC2C3=C(C(=O)C[C@@]21C)[C@@]1(C)CC[C@@H](O)[C@@H](C)C1CC3=O)C(C)C(=O)OC (stereo partly shown) [No. 15, Camphoratin E] | 78 | 89.4
CC(C)[C@@H](C)/C=C/[C@@H](C)[C@H]1CC[C@@H]2[C@]1(C)CC[C@H]1[C@]23C=C[C@]2(C[C@@H](O)CC[C@]12C)OO3 [No. 25, Ergosterol peroxide] | < 0 | < 0
C=C(CC[C@@H](C)[C@H]1CCC2C3=C(C(=O)[C@H](O)[C@@]21C)[C@@]1(C)CCC(=O)[C@@H](C)C1CC3=O)C(C)C(=O)OC (stereo partly shown) [No. 22, Camphoratin N] | 58.3 | 89
C=C(CC[C@@H](C)[C@H]1CC[C@H]2C3=C(C(=O)C[C@]12C)[C@@]1(C)CCC(=O)[C@@H](C)[C@@H]1CC3=O)C(C)C(=O)OC (stereo partly shown) [No. 2, Zhankuic acid A methyl ester] | 51.6 | 80.3
C=C(CC[C@@H](C)[C@H]1CC[C@H]2C3=C(C(=O)C[C@]12C)[C@@]1(C)CC[C@@H](O)[C@](C)(O)[C@@H]1C[C@@H]3O)C(C)C(=O)O (stereo partly shown) [No. 10, Antcin K] | 49.4 | 88.5
C=C(CC[C@@H](C)[C@H]1CCC2C3=C(C(=O)C[C@@]21C)[C@@]1(C)CC[C@@H](O)[C@@H](C)C1CC3=O)C(C)C(=O)O (stereo partly shown) [No. 3, Zhankuic acid B] | 68.9 | 88.6
C=C(CC[C@@H](C)[C@H]1CCC2C3=C(C(=O)C[C@@]21C)[C@@]1(C)CCC(=O)[C@@H](C)C1C[C@H]3O)C(C)C(=O)O (stereo partly shown) [No. 17, Camphoratin G] | 68.8 | 22.5
C=C(CC[C@@H](C)[C@H]1CC[C@H]2C3=C(C(=O)C[C@]12C)[C@@]1(C)CCC(=O)[C@@H](C)[C@@H]1CC3)C(C)C(=O)OC (stereo partly drawn) [No. 26, Methyl-4α-methylergost-8,24(28)-diene-3,11-dion-26-oate] | 49.3 | < 0
C=C(CC[C@@H](C)[C@H]1CCC2C3=C(C(=O)C[C@@]21C)[C@@]1(C)CCC(=O)[C@@H](C)C1C[C@@H]3O)C(C)C(=O)O (stereo partly shown) [No. 9, Antcin C] | 43.6 | 43.1
C=C(CC[C@@H](C)[C@H]1CCC2C3=C(C(=O)C[C@@]21C)[C@@]1(C)CCC(=O)[C@@H](C)C1CC3=O)C(C)C(=O)OCC (stereo partly shown) [No. 6, Zhankuic acid D] | 67.1 | 54.8
